Source: the supplement of paper PMC10307832

Legend:
Experiment in all cases: relative viability (nuclei count vs DMSO), 5 days (fraction); higher = more cells survive
AZD1208 + Tozasertib = compound: N[C@@H]1CCCN(c2c(/C=C3\SC(=O)NC3=O)cccc2-c2ccccc2)C1 [AZD1208] + Cc1cc(Nc2cc(N3CCN(C)CC3)nc(Sc3ccc(NC(=O)C4CC4)cc3)n2)n[nH]1 [Tozasertib] (partner 0.1 µM)
Procedure, shortened: (§1)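 Relative viability was taken as the ratio of nuclei in treated wells to nuclei in vehicle wells. Lung cancer cell lines in 1536-well plates received compounds by pin tool one day after seeding, either one drug alone or a fixed anchor-drug dose plus five library-drug doses (not always all listed) in √10 steps. Nuclei were counted on 4× images after 5 days of treatment, and values are medians of duplicate plates.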

AZD1208 + Pemetrexed = compound: N[C@@H]1CCCN(c2c(/C=C3\SC(=O)NC3=O)cccc2-c2ccccc2)C1 [AZD1208] + Nc1nc2[nH]cc(CCc3ccc(C(=O)N[C@@H](CCC(=O)O)C(=O)O)cc3)c2c(=O)[nH]1 [Pemetrexed] (partner 0.2 µM)
Procedure, shortened: as §1

XMD14-99 + Pemetrexed = compound: CN1CCN(CC1)C2=CC(=C(C=C2)NC3=NC(=C(S3)C(=O)C4=C(C=CC=C4Cl)Cl)N)OC [XMD14-99] + Nc1nc2[nH]cc(CCc3ccc(C(=O)N[C@@H](CCC(=O)O)C(=O)O)cc3)c2c(=O)[nH]1 [Pemetrexed] (partner 0.2 µM)
Procedure, shortened: as §1

AZD1208 + Foretinib = compound: N[C@@H]1CCCN(c2c(/C=C3\SC(=O)NC3=O)cccc2-c2ccccc2)C1 [AZD1208] + COc1cc2c(Oc3ccc(NC(=O)C4(C(=O)Nc5ccc(F)cc5)CC4)cc3F)ccnc2cc1OCCCN1CCOCC1 [Foretinib] (partner 0.25 µM)
Procedure, shortened: as §1

| Cell Line | relative viability (AZD1208 + Tozasertib; first compound 0.08 µM) | relative viability (AZD1208 + Tozasertib; first compound 0.253 µM) | relative viability (AZD1208 + Tozasertib; first compound 0.8 µM) | relative viability (AZD1208 + Tozasertib; first compound 2.53 µM) | relative viability (AZD1208 + Tozasertib; first compound 8 µM) | relative viability (AZD1208 + Pemetrexed; first compound 0.08 µM) | relative viability (AZD1208 + Pemetrexed; first compound 0.253 µM) | relative viability (AZD1208 + Pemetrexed; first compound 0.8 µM) | relative viability (AZD1208 + Pemetrexed; first compound 2.53 µM) | relative viability (AZD1208 + Pemetrexed; first compound 8 µM) | relative viability (XMD14-99 + Pemetrexed; first compound 0.08 µM) | relative viability (XMD14-99 + Pemetrexed; first compound 0.8 µM) | relative viability (XMD14-99 + Pemetrexed; first compound 2.53 µM) | relative viability (XMD14-99 + Pemetrexed; first compound 8 µM) | relative viability (AZD1208 + Foretinib; first compound 0.08 µM) | relative viability (AZD1208 + Foretinib; first compound 0.253 µM) | relative viability (AZD1208 + Foretinib; first compound 0.8 µM) | relative viability (AZD1208 + Foretinib; first compound 2.53 µM) | relative viability (AZD1208 + Foretinib; first compound 8 µM) |
| --- | --- | --- | --- | --- | --- | --- | --- | --- | --- | --- | --- | --- | --- | --- | --- | --- | --- | --- | --- |
| ChaGo-K-1 | 0.216 | 0.202 | 0.193 | 0.218 | 0.183 | 0.269 | 0.261 | 0.293 | 0.261 | 0.25 | 0.257 | 0.256 | 0.263 | 0.233 | 0.855 | 0.903 | 0.808 | 0.875 | 0.73 |
| NCI-H661 | 0.351 | 0.347 | 0.361 | 0.358 | 0.355 | 0.956 | 0.9 | 0.94 | 0.942 | 0.955 | 0.86 | 0.796 | 0.779 | 0.678 | 0.979 | 1.15 | 1.04 | 0.994 | 0.951 |
| COR-L23 | 0.152 | 0.174 | 0.187 | 0.182 | 0.171 | 0.188 | 0.193 | 0.195 | 0.206 | 0.194 | 0.192 | 0.207 | 0.166 | 0.184 | 0.961 | 1.05 | 0.966 | 0.94 | 0.97 |
| COR-L 105 | 0.35 | 0.384 | 0.376 | – | 0.348 | 1.1 | 0.982 | 1.01 | 1.2 | 1.08 | 1.14 | 0.855 | 0.965 | 0.788 | 0.849 | 1.09 | 1.05 | – | 1 |
| LK-2 | 0.157 | 0.2 | 0.169 | 0.13 | 0.168 | 0.344 | 0.25 | – | 0.219 | 0.163 | 0.219 | 0.247 | 0.258 | 0.119 | 0.935 | 0.707 | 0.821 | 0.574 | 0.421 |
| 201T | 0.959 | 0.934 | 0.865 | 0.803 | 0.649 | 0.346 | 0.339 | 0.305 | 0.269 | 0.327 | 0.331 | 0.356 | 0.32 | 0.281 | 1.06 | 1.12 | 1.07 | 1.06 | 1 |
| NCI-H647 | 0.239 | 0.345 | 0.175 | 0.295 | 0.163 | 0.19 | 0.195 | 0.17 | 0.188 | 0.165 | 0.147 | 0.14 | 0.209 | 0.141 | 1.07 | 1.25 | 1.04 | 1.16 | 0.897 |
| H3255 | 0.664 | 0.675 | 0.534 | 0.58 | 0.689 | 0.591 | 0.577 | 0.597 | 0.524 | 0.598 | 0.558 | 0.526 | 0.518 | 0.433 | 0.919 | 0.867 | 0.65 | 0.954 | 0.932 |
| NCI-H650 | 0.732 | 0.725 | 0.67 | 0.684 | 0.66 | 0.893 | 0.939 | 0.893 | 0.703 | 0.867 | 0.932 | 1.03 | 0.929 | 0.961 | 1.03 | 1.03 | 0.977 | 0.9 | 0.829 |
| NCI-H2085 | 0.811 | 0.858 | 0.714 | 0.868 | 0.771 | 0.912 | 0.971 | 0.936 | 0.817 | 0.893 | 0.9 | 0.899 | 0.839 | 0.65 | 0.965 | 0.97 | 1.23 | 0.886 | 0.748 |
| NCI-H2347 | 0.364 | 0.523 | 0.524 | 0.687 | 0.502 | 0.447 | 0.423 | 0.468 | 0.439 | 0.444 | 0.46 | 0.426 | 0.391 | 0.35 | 0.867 | 0.671 | 0.987 | 0.917 | 0.742 |
| NCI-H1944 | 0.242 | 0.225 | 0.226 | 0.214 | 0.202 | 0.593 | 0.652 | 0.591 | 0.579 | 0.535 | 0.595 | 0.605 | 0.602 | 0.481 | 0.829 | 0.838 | 0.774 | 0.688 | 0.571 |
| NCI-H1793 | 0.302 | 0.313 | 0.314 | 0.296 | 0.267 | 0.828 | 0.954 | 0.716 | 0.935 | 0.718 | 0.947 | 1 | 0.83 | 0.631 | 0.578 | 0.653 | 0.545 | 0.749 | 0.631 |
| NCI-H596 | 0.896 | 0.925 | 0.77 | 0.733 | 0.592 | 0.523 | 0.507 | 0.537 | 0.498 | 0.407 | 0.465 | 0.48 | 0.447 | 0.494 | 0.882 | 0.912 | 0.806 | 0.865 | 0.673 |
| NCI-H520 | 0.432 | 0.37 | 0.422 | 0.355 | 0.331 | 0.685 | 0.703 | 0.555 | 0.524 | 0.446 | 0.624 | 0.625 | 0.596 | 0.501 | 0.746 | 0.754 | 0.656 | 0.612 | 0.396 |
| EKVX | 0.444 | 0.462 | 0.376 | 0.388 | 0.262 | 0.411 | 0.441 | 0.404 | 0.425 | 0.404 | 0.366 | 0.338 | 0.328 | 0.362 | 0.798 | 0.744 | 0.876 | 0.858 | 0.913 |
| NCI-H358 | 0.109 | 0.0897 | 0.104 | 0.101 | 0.091 | 0.153 | 0.181 | 0.167 | 0.173 | 0.145 | 0.16 | 0.142 | 0.178 | 0.146 | 0.594 | 0.692 | 0.573 | 0.698 | 0.522 |
